Laboratory results from patent US7271148B2, “Inhibition of cellular proteases” (The Board of Regents of The University of Texas System, priority 1999, dated 2007).

Assays:
m-calpain = molecular target: T1, m-calpain (Homo sapiens, UniProt P17655); experiment: Cleavage of purified recombinant p21cip1 by purified m-calpain; format: biochemical; conditions: purified recombinant p21^cip1 incubated with m-calpain
T1 construct: purchased Sigma (St. Louis, Mo.)
T1 sequence (P17655 1-700): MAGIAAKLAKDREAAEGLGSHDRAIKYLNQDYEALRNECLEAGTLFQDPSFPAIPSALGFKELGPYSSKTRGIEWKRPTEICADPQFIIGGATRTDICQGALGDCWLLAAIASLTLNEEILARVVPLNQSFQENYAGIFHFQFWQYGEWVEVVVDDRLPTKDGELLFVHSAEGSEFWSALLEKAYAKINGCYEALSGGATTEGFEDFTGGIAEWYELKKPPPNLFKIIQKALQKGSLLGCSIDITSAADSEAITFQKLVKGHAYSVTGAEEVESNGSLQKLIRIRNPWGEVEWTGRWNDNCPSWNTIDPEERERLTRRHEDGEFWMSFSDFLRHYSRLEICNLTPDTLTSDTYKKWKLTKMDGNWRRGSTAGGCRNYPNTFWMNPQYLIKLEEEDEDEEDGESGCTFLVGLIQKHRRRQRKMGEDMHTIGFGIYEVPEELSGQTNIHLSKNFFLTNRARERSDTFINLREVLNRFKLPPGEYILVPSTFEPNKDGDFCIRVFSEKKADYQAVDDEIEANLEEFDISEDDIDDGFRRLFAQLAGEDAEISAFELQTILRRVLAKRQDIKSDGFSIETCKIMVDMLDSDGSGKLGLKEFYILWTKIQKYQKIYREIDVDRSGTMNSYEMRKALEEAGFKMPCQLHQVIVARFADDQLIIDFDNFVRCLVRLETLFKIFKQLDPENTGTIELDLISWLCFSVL
T1 sequence (P04632 1-268 partner): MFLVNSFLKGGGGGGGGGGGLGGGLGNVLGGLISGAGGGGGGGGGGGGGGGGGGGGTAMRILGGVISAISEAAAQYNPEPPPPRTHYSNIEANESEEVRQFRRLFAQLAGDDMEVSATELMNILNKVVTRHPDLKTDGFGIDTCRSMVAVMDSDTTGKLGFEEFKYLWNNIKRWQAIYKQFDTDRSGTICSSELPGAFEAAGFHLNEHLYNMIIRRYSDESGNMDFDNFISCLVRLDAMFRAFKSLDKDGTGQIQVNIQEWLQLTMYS
Experimental: Cleavage of p21^cip1 by calpain. Recombinant p21^cip1 was provided by Harper (37) or Ke (47), and was also prepared using the expression plasmid pET-p21 (37) according to the published methods (30). To evaluate the effect of calpains on p21^cip1, 400 ng of purified recombinant p21^cip1 was incubated with 0.004 units of either pure μ-calpain or m-calpain at 30° C. for 30 minutes in 40 μl of cleavage buffer, containing 25 mM Tris-HCl (pH 7.5), 100 mM NaCl, 3 mM DTT and 5 mM CaCl2 (44). EDTA was added to 10 mM to stop the reaction. An equal volume of 2×SDS gel-loading buffer (18) was mixed with the digestion mixture and the mixture was immediately boiled for 5 min. The digestion products were evaluated by Western blot analysis or SDS-PAGE and coomassie brilliant blue staining.

[1] = tested on: p21^cip1 abundance in mock-infected LU cells; experiment: Western blot of p21cip1 abundance in mock-infected, density-arrested LU cells; format: cell-based, human; conditions: E64d 100 μM, mock-infected cells
Experimental: Cell culture and growth arrest. LU cells (3) were propagated in Eagle's minimum essential medium containing 10% fetal bovine serum and penicillin (100 units/ml)/streptomycin (100 μg/ml) in a 5% CO2 in air atmosphere. The cells were density-arrested as described previously in detail (18).
Virus stocks and productive infection. The AD169 strain of HCMV was propagated in LU cells as previously described in detail (6). The infectivity of virus stocks was determined by plaque assay (3). Virus stocks typically had infectivities between 8.0×10^6 and 4.0×10^7 plaque-forming units (PFU)/milliliter. LU cells were infected with HCMV as described in detail by Bresnahan et al. (18). Virus stocks and cell cultures were routinely examined for mycoplasma.
Western blots. Polyclonal or monoclonal antibody for p21^cip1 was obtained from Santa Cruz Biotechnology, Inc. (Santa Cruz, Calif.). Monoclonal antibodies against m-calpain, μ-calpain or calpastatin were generously provided by Dr. R. I. Mellgren (see also 75). Cells were harvested as described previously (18) by dislodging the cells with a cell lifter in phosphate buffered saline. The cells were collected by sedimentation and lysed in NP-40 lysis buffer [50 mM Tris, pH 7.4, 50 mM NaCl, 0.5% NP-40, and 1 mM NaVO3, 50 mM NaF, 1mM phenylmethylsulfonyl fluoride (PMSF), 1 mM dithiothreitol (DTT), 25 μg/ml trypsin inhibitor, 25 μg/ml aprotinin, 1 mM benzamide, and 25 μg/ml pepstatin A added just before use]. Cellular debris was removed by sedimentation and the supernatant fluids were reserved. The protein concentration was determined by the BCA protein assay (Pierce, Rockford, Ill.). Whole cell extracts (40 μg/lane) were fractionated by SDS-polyacrylamide gel electrophoresis (PAGE), and the polypeptides were transferred to nitrocellulose membranes (Bio-Rad Laboratories, Hercules, Calif.) as described previously (18). Antigen-antibody reactions were detected with the enhanced chemiluminescent assay (Amersham Pharmacia Biotech) following the manufacturer's recommendations.
FIGS. 5 and 6. The effect of MG132, an inhibitor of proteasome degradation, on p21^cip1 abundance in HCMV- or mock-infected, density-arrested LU cells. 5. LU cells were density arrested, as described in Materials and Methods. The cell cultures were HCMV (5 PFU/cell)- or mock-infected and then exposed to selected concentrations of MG132 at 24 hr PI. Cell lysates were prepared at 30 hr PI (i.e., 6 hr after […] treatment), and 40 μg of protein from each lysate was resolved by SDS-PAGE. The proteins were transferred to nitrocellulose and probed with antibodies against p21^cip1. Control, cells cultured in the absence of MG132 or its solvent, DMSO. 0, DMSO solvent control, consisting of cells treated with the same concentration of DMSO (0.1%) present in the cultural fluids containing highest concentration of MG132 (10 μM). 6. Represents the abundance of p21^cip1 after MG132 treatment determined by densitometry of the data illustrated in FIG. 5. The data for mock-infected cells (open bars) were calculated relative to the p21^cip1 abundance in untreated mock-infected cells, while the data for HCMV-infected cells (closed bars) were determined relative to the p21^cip1 abundance in untreated HCMV-infected cells.
FIGS. 7 and 8. […]
At the times indicated in the FIG., whole cell lysates were prepared, and 40 μg of protein from each lysate was analyzed by SDS-PAGE. […]

CC(C)C[C@H](NC(=O)[C@H]1O[C@@H]1C(=O)O)C(=O)NCCCCN=C(N)N (relative stereo) [E64d, trans-epoxysuccinyl-L-leucylamido (4-guanidino)-butane]
proteolysis of p21^cip1 by m-calpain (in words) (m-calpain): inhibited the proteolysis
effect on p21^cip1 levels in mock-infected cells (in words) [1]: little, if any, effect
increase in p21^cip1 ([1]; 3 hr post-treatment (treatment from 48 hr PI)): ~56%
